Measured values taken from patent publication US11364211B2, “Methods for selecting phosphatase selective and non-selective phosphatase inhibitors” (MEDICAL RESEARCH COUNCIL, priority 2015, dated 2022).
pKd: −log10 of the molar value. “Also recorded” adds a separate entry of the source.

Columns and labels:
PPP1R15B-PP1 complex = target: T1, PPP1R15B-PP1 complex (Homo sapiens, UniProt Q5SWA1); test: SPR steady-state binding to R15B-PP1c holophosphatase on streptavidin chip; details: SPR
T1 construct: 340-698 of PPP1R15B were His-tagged and cloned into pMAL-c5x; made in house; host or cells: R15B fragment: E. coli BL21-Gold; BAP-PP1γ: Sf9 insect cells (baculovirus)
T1 sequence (Q5SWA1 340-698): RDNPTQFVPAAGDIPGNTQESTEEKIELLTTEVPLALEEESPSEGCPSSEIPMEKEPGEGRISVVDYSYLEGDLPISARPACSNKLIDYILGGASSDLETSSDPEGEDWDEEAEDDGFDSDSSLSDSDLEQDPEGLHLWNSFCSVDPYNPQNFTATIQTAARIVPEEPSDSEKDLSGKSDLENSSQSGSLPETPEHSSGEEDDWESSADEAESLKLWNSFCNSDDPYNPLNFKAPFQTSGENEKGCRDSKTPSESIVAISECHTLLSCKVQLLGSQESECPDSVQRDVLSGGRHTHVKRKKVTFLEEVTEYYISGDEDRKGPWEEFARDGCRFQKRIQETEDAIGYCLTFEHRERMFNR
T1 sequence (P36873 whole entry partner, the tested form may be a part): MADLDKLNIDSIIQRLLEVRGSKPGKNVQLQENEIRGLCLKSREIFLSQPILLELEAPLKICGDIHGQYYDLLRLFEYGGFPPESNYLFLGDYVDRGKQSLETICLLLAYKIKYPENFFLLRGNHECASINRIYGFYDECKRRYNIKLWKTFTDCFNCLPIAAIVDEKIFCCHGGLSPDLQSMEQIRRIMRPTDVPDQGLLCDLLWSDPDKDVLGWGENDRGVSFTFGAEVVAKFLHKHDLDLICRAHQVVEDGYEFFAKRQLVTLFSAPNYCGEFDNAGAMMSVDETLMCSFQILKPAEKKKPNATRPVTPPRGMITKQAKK
Protocol: The streptavidin coated surface was activated by 1 min injection with a solution of 50 mM NaOH and 1 M NaCl. Biotin-PP1 was diluted in the running buffer (50 mM Tris pH 7.5, 100 mM NaCl, 0.1 mM EGTA, 1 mM MnCl2, 0.05% Tween 20) and injected at approximately 300 nM concentration directly to streptavidin coated surface for 100 sec or to reach immobilization level of biotin-PP1 corresponding to ˜7000 RU. A blank immobilization was performed for one of the SA sensor chip surface to use as a reference.
With minor deviations, the same procedure and conditions were used in all binding experiments. Small molecules were stored as 50 mM stock solutions in 100% DMSO. Prior to determining binding constants, serial dilutions of either 12 or 8 concentrations of the compounds were prepared in the running buffer in a 96-well plate. […] Then, without regenerating the surface, the compound dilution series was injected onto the surface of the chip Sensorgrams were analyzed using the Biacore T200 evaluation software and the binding constants determined based on a steady-state model. Kinetic experiments are carried out using different concentrations of the compound and their respective equilibrium binding levels determined.
Surface Plasmon Resonance (SPR) was used to measure the binding affinity of compounds to the PPP1R15A/B-PP1 phosphatase complex. Biotin acceptor peptide (BAP) was fused to the N-terminus of PP1γ, which enables the biotinylation of the BAP-tagged protein in Sf9 insect cells. After purification the BAP-PP1γ protein was captured on a streptavidin sensor chip (SA-chip, GE healthcare) to a response level of ˜5.000 RU. Using controlled biotinylation enables orientated and uniform immobilization on the sensor chip surface. The PP1γ was then used to capture PPP1R15A/B and form a holophosphatase complex on the surface of the streptavidin chip. This complex can then be used to test binding of compounds. 10 μM PPP1R15A/B protein concentration was used to form the holophosphatase complex during a 80 s injection. […] After the concentration series (8 or 12 concentrations) is completed the surface is regenerated with 3 M NaCl and we can capture R15A/B again to form a fresh holophosphatase complex to measure a binding of another compound concentration series. Analysing the level of equilibrium binding as a function of concentration gives interaction affinities or steady-state binding affinity (KD).
The streptavidin coated surface was activated by 1 minute injection with a solution of 50 mM NaOH and 1 M NaCl three times at a flow rate of 10 μl/min. bio-GBZ or bio-PP1c was diluted in the running buffer (50 mM Tris pH 7.5, 100 mM NaCl, 0.1 mM EGTA, 0.05% Tween 20, 0.1% DMSO) and injected at approximately 300 nM concentration at a flow rate of 10 μl/min directly to streptavidin coated surface to reach immobilization level of bio-GBZ or bio-PP1c corresponding to ˜200 and 6000 RU, respectively. A blank immobilization was performed for one of the SA sensor chip surface to use as a reference.
With minor deviations, the same procedure and conditions were used in all binding experiments. Small molecules were stored as 50 mM stock solutions in 100% DMSO. Prior to determining binding constants, serial dilutions of either 12 or 8 concentrations of the compounds were prepared in the running buffer in a 96-well plate. […] This was followed by 1 minute stabilization period, to wash off any unspecific binding. Then, without regenerating the surface, the compound dilution series was injected onto the surface of the chip at a flow rate of 30 μl/min for 1 minute, followed by 2 minutes dissociation time. After each dilution series the surface was regenerated using 3 M NaCl for 90 seconds. […] In order to be able to correct for small variations in DMSO concentration between samples, eight solvent samples ranging from 0.06 to 8% DMSO were injected every 50th cycle. The flow cell temperature was 10° C.

HeLa cells = test: Translation rates by 35S-methionine labelling in HeLa cells; assay type: cell-based, human; details: for protein synthesis / translation rates: basal conditions, 10 μM
Protocol: Cells (90,000 cells/ml) were plated in 12-well plates, treated as indicated, labelled with 100 μCi/ml ^35S-methionine (Hartmann Analytic) for 10 minutes at 37° C., washed with ice-cold PBS and lysed in 120 μl Laemmli Buffer. Lysates were boiled at 95° C. for 5 minutes, sonicated and resolved on 4-12% Bolt Bis-Tris Plus Gels (Thermo Fisher Scientific). Gels were then stained with InstantBlue (Expedeon) and analyzed by phosphorimaging.

[1] = Guanabenz-like side effects: mouse activity after acute dosing; assay type: in vivo; details: 10 mg/kg oral gavage, 30 minutes following dosing
Protocol: To assess whether of a compound of Example 1 had the side effects of Guanabenz, mice (n>3) were gavaged orally with 10 mg/kg of compound or Guanabenz. Their activity was monitored 30 minutes following dosing.
In order to assess the GBZ-like side effects (due to the adrenergic activity) of treatment the motor performance of mice was monitored after a single administration of TST3. To this end mice were treated with TST3 and left in a cage for 60 minutes. Mice behaviour was monitored every 15 minutes. Mice similarly treated with GBZ were used as a control.

| Structure (SMILES) | binding to R15B-PP1c (in words) (PPP1R15B-PP1 complex) | pKd (PPP1R15B-PP1 complex; steady-state affinity) | protein synthesis in the presence of GBZ (HeLa cells; TST3+/- GBZ at 10 μM) | protein synthesis / translation rates (HeLa cells; listed as TST3) | side effects of Guanabenz / activity of mice after dosing ([1]; 10 mg/kg) | binding to R15B-PP1c (in words) (PPP1R15B-PP1 complex; listed as GBZ) | protein synthesis / translation rates (HeLa cells) | side effects of Guanabenz / activity of mice after dosing [1] |
| --- | --- | --- | --- | --- | --- | --- | --- | --- |
| [H]/N=C(\N)NN=Cc1cccc(Cl)c1Cl [Example 1, (E)-2-(2,3-dichlorobenzylidene)hydrazine-1-carboximidamide] | bound strongly and selectively | 7.48 | persistently inhibits protein synthesis; also recorded: rendered persistent | transiently reduces protein synthesis; also recorded: rapidly and transiently decreased | as active as untreated mice; also recorded: devoid of the side effects of Guanabenz; also recorded: does not cause the side effects of Guanabenz | – | – | – |
| N=C(N)N/N=C/c1c(Cl)cccc1Cl [Guanabenz, reference compound] | – | – | – | – | – | not or weakly; also recorded: no binding was detected | did not affect | did not move |
